Laboratory results taken from the NIST ThermoML archive (doi:10.1016/j.jct.2014.12.011).

Test: mn = molality of the nth substance listed, in mol/kg
Conditions: 100 kPa, Liquid, Alternating current cell with electrodes

CCCCCCCCCC(=O)[O-].[K+] [potassium decanoate] + O
Conditions	electrical conductivity [S/m]
288.15 K, m1 = 0.00932	0.0666
288.15 K, m1 = 0.01855	0.13
288.15 K, m1 = 0.02771	0.19
288.15 K, m1 = 0.03678	0.247
288.15 K, m1 = 0.04578	0.303
288.15 K, m1 = 0.0547	0.358
288.15 K, m1 = 0.06355	0.411
288.15 K, m1 = 0.07232	0.462
288.15 K, m1 = 0.08102	0.511
288.15 K, m1 = 0.08964	0.5603
288.15 K, m1 = 0.09819	0.608
288.15 K, m1 = 0.1067	0.654
288.15 K, m1 = 0.1151	0.698
288.15 K, m1 = 0.1234	0.738
288.15 K, m1 = 0.1317	0.771
288.15 K, m1 = 0.1399	0.8021
288.15 K, m1 = 0.148	0.8314
288.15 K, m1 = 0.1561	0.86
288.15 K, m1 = 0.1641	0.888
288.15 K, m1 = 0.1721	0.915
288.15 K, m1 = 0.1799	0.943
288.15 K, m1 = 0.1878	0.9704
298.15 K, m1 = 0.00998	0.0875
298.15 K, m1 = 0.01987	0.172
298.15 K, m1 = 0.02967	0.251
298.15 K, m1 = 0.03939	0.328
298.15 K, m1 = 0.04902	0.402
298.15 K, m1 = 0.05856	0.474
298.15 K, m1 = 0.06803	0.545
298.15 K, m1 = 0.07741	0.613
298.15 K, m1 = 0.08671	0.679
298.15 K, m1 = 0.09593	0.743
298.15 K, m1 = 0.1051	0.802
298.15 K, m1 = 0.1141	0.858
298.15 K, m1 = 0.1231	0.905
298.15 K, m1 = 0.1321	0.949
298.15 K, m1 = 0.1409	0.99
298.15 K, m1 = 0.1497	1.03
298.15 K, m1 = 0.1583	1.07
298.15 K, m1 = 0.167	1.108
298.15 K, m1 = 0.1755	1.147
298.15 K, m1 = 0.184	1.19
298.15 K, m1 = 0.1924	1.224
298.15 K, m1 = 0.2008	1.26
298.15 K, m1 = 0.209	1.301
308.15 K, m1 = 0.00952	0.101
308.15 K, m1 = 0.01895	0.198
308.15 K, m1 = 0.0283	0.29
308.15 K, m1 = 0.03758	0.379
308.15 K, m1 = 0.04677	0.465
308.15 K, m1 = 0.05588	0.549
308.15 K, m1 = 0.06492	0.631
308.15 K, m1 = 0.07388	0.71
308.15 K, m1 = 0.08277	0.785
308.15 K, m1 = 0.09158	0.8601
308.15 K, m1 = 0.1003	0.931
308.15 K, m1 = 0.109	0.996
308.15 K, m1 = 0.1176	1.05
308.15 K, m1 = 0.1261	1.104
308.15 K, m1 = 0.1346	1.15
308.15 K, m1 = 0.1429	1.201
308.15 K, m1 = 0.1512	1.25
308.15 K, m1 = 0.1595	1.29
308.15 K, m1 = 0.1677	1.342
308.15 K, m1 = 0.1758	1.39
308.15 K, m1 = 0.1838	1.434
308.15 K, m1 = 0.1918	1.48
308.15 K, m1 = 0.1997	1.525
318.15 K, m1 = 0.0099	0.125
318.15 K, m1 = 0.01971	0.243
318.15 K, m1 = 0.02944	0.356
318.15 K, m1 = 0.03908	0.465
318.15 K, m1 = 0.04864	0.571
318.15 K, m1 = 0.05811	0.673
318.15 K, m1 = 0.0675	0.771
318.15 K, m1 = 0.07682	0.867
318.15 K, m1 = 0.08605	0.962
318.15 K, m1 = 0.0952	1.05
318.15 K, m1 = 0.1043	1.135
318.15 K, m1 = 0.1133	1.21
318.15 K, m1 = 0.1222	1.28
318.15 K, m1 = 0.131	1.342
318.15 K, m1 = 0.1398	1.404
318.15 K, m1 = 0.1485	1.46
318.15 K, m1 = 0.1571	1.524
318.15 K, m1 = 0.1657	1.58
318.15 K, m1 = 0.1742	1.641
318.15 K, m1 = 0.1826	1.7
318.15 K, m1 = 0.1909	1.76
318.15 K, m1 = 0.1992	1.815
318.15 K, m1 = 0.2074	1.87
328.15 K, m1 = 0.00972	0.143
328.15 K, m1 = 0.01937	0.279
328.15 K, m1 = 0.02892	0.408
328.15 K, m1 = 0.0384	0.533
328.15 K, m1 = 0.0478	0.654
328.15 K, m1 = 0.05712	0.769
328.15 K, m1 = 0.06636	0.883
328.15 K, m1 = 0.07552	0.994
328.15 K, m1 = 0.08461	1.103
328.15 K, m1 = 0.09362	1.207
328.15 K, m1 = 0.1026	1.305
328.15 K, m1 = 0.1114	1.4
328.15 K, m1 = 0.1202	1.48
328.15 K, m1 = 0.1289	1.55
328.15 K, m1 = 0.1376	1.627
328.15 K, m1 = 0.1462	1.7
328.15 K, m1 = 0.1547	1.77
328.15 K, m1 = 0.1631	1.836
328.15 K, m1 = 0.1715	1.904
328.15 K, m1 = 0.1798	1.97
328.15 K, m1 = 0.188	2.038
328.15 K, m1 = 0.1962	2.106
328.15 K, m1 = 0.2043	2.17

CCCCCCCCCCCC(=O)[O-].[Na+] [sodium dodecanoate] + O
Conditions	electrical conductivity [S/m]
298.15 K, m1 = 0.01084	0.0726
298.15 K, m1 = 0.01211	0.0809
298.15 K, m1 = 0.01337	0.0892
298.15 K, m1 = 0.01462	0.0974
298.15 K, m1 = 0.01585	0.105
298.15 K, m1 = 0.01707	0.113
298.15 K, m1 = 0.01827	0.121
298.15 K, m1 = 0.01946	0.129
298.15 K, m1 = 0.02064	0.136
298.15 K, m1 = 0.0218	0.143
298.15 K, m1 = 0.02295	0.151
298.15 K, m1 = 0.02408	0.158
298.15 K, m1 = 0.0252	0.165
298.15 K, m1 = 0.02631	0.172
298.15 K, m1 = 0.02741	0.178
298.15 K, m1 = 0.02849	0.183
298.15 K, m1 = 0.02957	0.187
298.15 K, m1 = 0.03063	0.1909
298.15 K, m1 = 0.03168	0.194
298.15 K, m1 = 0.03271	0.198
298.15 K, m1 = 0.03374	0.201
298.15 K, m1 = 0.03476	0.204
298.15 K, m1 = 0.03576	0.207
298.15 K, m1 = 0.03675	0.2102
308.15 K, m1 = 0.01107	0.0928
308.15 K, m1 = 0.01239	0.103
308.15 K, m1 = 0.0137	0.114
308.15 K, m1 = 0.01499	0.125
308.15 K, m1 = 0.01626	0.135
308.15 K, m1 = 0.01752	0.145
308.15 K, m1 = 0.01876	0.155
308.15 K, m1 = 0.01999	0.165
308.15 K, m1 = 0.0212	0.175
308.15 K, m1 = 0.0224	0.185
308.15 K, m1 = 0.02359	0.194
308.15 K, m1 = 0.02476	0.203
308.15 K, m1 = 0.02591	0.212
308.15 K, m1 = 0.02706	0.219
308.15 K, m1 = 0.02819	0.225
308.15 K, m1 = 0.0293	0.231
308.15 K, m1 = 0.03041	0.236
308.15 K, m1 = 0.0315	0.2405
308.15 K, m1 = 0.03257	0.245
308.15 K, m1 = 0.03364	0.249
308.15 K, m1 = 0.0347	0.254
308.15 K, m1 = 0.03574	0.258
308.15 K, m1 = 0.03677	0.262
308.15 K, m1 = 0.03779	0.266
318.15 K, m1 = 0.01302	0.131
318.15 K, m1 = 0.01423	0.142
318.15 K, m1 = 0.01542	0.154
318.15 K, m1 = 0.0166	0.165
318.15 K, m1 = 0.01777	0.176
318.15 K, m1 = 0.01892	0.188
318.15 K, m1 = 0.02006	0.198
318.15 K, m1 = 0.02118	0.209
318.15 K, m1 = 0.02229	0.22
318.15 K, m1 = 0.02339	0.23
318.15 K, m1 = 0.02448	0.24
318.15 K, m1 = 0.02555	0.249
318.15 K, m1 = 0.02661	0.258
318.15 K, m1 = 0.02766	0.265
318.15 K, m1 = 0.0287	0.272
318.15 K, m1 = 0.02972	0.278
318.15 K, m1 = 0.03074	0.283
318.15 K, m1 = 0.03174	0.288
318.15 K, m1 = 0.03274	0.293
318.15 K, m1 = 0.03372	0.298
318.15 K, m1 = 0.03469	0.303
318.15 K, m1 = 0.03565	0.308
318.15 K, m1 = 0.0366	0.312
318.15 K, m1 = 0.03754	0.317
328.15 K, m1 = 0.01297	0.151
328.15 K, m1 = 0.01413	0.164
328.15 K, m1 = 0.01527	0.177
328.15 K, m1 = 0.01641	0.189
328.15 K, m1 = 0.01752	0.202
328.15 K, m1 = 0.01863	0.214
328.15 K, m1 = 0.01972	0.226
328.15 K, m1 = 0.0208	0.238
328.15 K, m1 = 0.02187	0.249
328.15 K, m1 = 0.02292	0.26
328.15 K, m1 = 0.02397	0.271
328.15 K, m1 = 0.025	0.282
328.15 K, m1 = 0.02602	0.293
328.15 K, m1 = 0.02703	0.303
328.15 K, m1 = 0.02802	0.311
328.15 K, m1 = 0.02901	0.319
328.15 K, m1 = 0.02999	0.326
328.15 K, m1 = 0.03095	0.332
328.15 K, m1 = 0.03191	0.338
328.15 K, m1 = 0.03285	0.344
328.15 K, m1 = 0.03379	0.35
328.15 K, m1 = 0.03471	0.355
328.15 K, m1 = 0.03563	0.36
328.15 K, m1 = 0.03653	0.366
